Laboratory results reported in PubChem BioAssay AID1963443 (Molecular Pharmacology Branch, DTP, NCI, 2024).
Several values for one entry are separate records, joined by “and”; a condition that tells them apart may be missing. Equal values may be shown once.

Tested on: MDA-MB-231 complex spheroids, growth inhibition
Assay: Anticancer human tumor MDA-MB-231 cell line growth inhibition [Asc];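 further: spheroids exposed to compounds for 7 days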
Conditions: for viability, T/C: stronger effect = lower value
How it was run: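 Tumor cells were grown as complex spheroids with human endothelial cells (HUVEC) and human mesenchymal stem cells as stroma. Agents were tested alone and in combination, in half-log steps down from the clinical Cmax, or from 10 microM where Cmax was unknown.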

[1] = curve of first compound, second compound 0.1 µM
[2] = curve of first compound, second compound 0.316 µM
[3] = curve of first compound, second compound 1 µM
[4] = curve of first compound, second compound 3.16 µM
[5] = curve of first compound, second compound 10 µM
[6] = second compound 0.1 µM, first compound 0.00949 µM
[7] = second compound 0.1 µM, first compound 0.03 µM
[8] = second compound 0.1 µM, first compound 0.0949 µM
[9] = second compound 0.1 µM, first compound 0.3 µM
[10] = second compound 0.316 µM, first compound 0.00949 µM
[11] = second compound 0.316 µM, first compound 0.03 µM
[12] = second compound 0.316 µM, first compound 0.0949 µM
[13] = second compound 0.316 µM, first compound 0.3 µM
[14] = second compound 1 µM, first compound 0.00949 µM
[15] = second compound 1 µM, first compound 0.03 µM
[16] = second compound 1 µM, first compound 0.0949 µM
[17] = second compound 1 µM, first compound 0.3 µM
[18] = second compound 3.16 µM, first compound 0.00949 µM
[19] = second compound 3.16 µM, first compound 0.03 µM
[20] = second compound 3.16 µM, first compound 0.0949 µM
[21] = second compound 3.16 µM, first compound 0.3 µM
[22] = second compound 10 µM, first compound 0.00949 µM
[23] = second compound 10 µM, first compound 0.03 µM
[24] = second compound 10 µM, first compound 0.0949 µM
[25] = second compound 10 µM, first compound 0.3 µM
[26] = second compound 0.1 µM, first compound 0.000949 µM
[27] = second compound 0.1 µM, first compound 0.003 µM
[28] = second compound 0.316 µM, first compound 0.000949 µM
[29] = second compound 0.316 µM, first compound 0.003 µM
[30] = second compound 1 µM, first compound 0.000949 µM
[31] = second compound 1 µM, first compound 0.003 µM

For `Cc1nc(N2CCC3(CC2)COC(C)C3N)c(CO)nc1Sc1ccnc(N)c1Cl` (configuration not stated) + Cc1c(S(C)(=O)=O)c(-c2cc(F)cc(N3CCN(c4ccc(NS(=O)(=O)c5ccc(NC(CCN6CCC(C(=O)OCCCP(=O)(O)O)CC6)CSc6ccccc6)c(S(=O)(=O)C(F)(F)F)c5)cc4)CC3)c2)c(-c2ccc(Cl)cc2)n1C(C)C, the IC50 [1] was 201 nM, the IC50 [2] was 249 nM and the IC50 [3] was 179 nM. It also gave an IC50 [4] of 162 nM, an IC50 [5] of 162 nM and a viability, T/C [6] of 97.2%. The viability, T/C [7] was 90.9%, the viability, T/C [8] was 76.8% and the viability, T/C [9] was 37%. The viability, T/C (second compound 0.1 µM, first compound 0.949 µM) was 1.43%, the viability, T/C (second compound 0.1 µM, first compound 3 µM) was 0.95% and the viability, T/C [10] was 108%. The viability, T/C [11] was 99.8%, the viability, T/C [12] was 88.9% and the viability, T/C [13] was 44.1%. For the same molecule, the viability, T/C (second compound 0.316 µM, first compound 0.949 µM) was 1.42%, the viability, T/C (second compound 0.316 µM, first compound 3 µM) was 1.39% and the viability, T/C [14] was 102%. It also gave a viability, T/C [15] of 94%, a viability, T/C [16] of 81.6% and a viability, T/C [17] of 24.7%. The viability, T/C (second compound 1 µM, first compound 0.949 µM) was 0.73%, the viability, T/C (second compound 1 µM, first compound 3 µM) was 1.11% and the viability, T/C [18] was 95.6%. The viability, T/C [19] was 93.4%, the viability, T/C [20] was 78.7% and the viability, T/C [21] was 17%. The viability, T/C (second compound 3.16 µM, first compound 0.949 µM) was 1.15%, the viability, T/C (second compound 3.16 µM, first compound 3 µM) was 0.34% and the viability, T/C [22] was 106%. For the same molecule, the viability, T/C [23] was 103%, the viability, T/C [24] was 82% and the viability, T/C [25] was 12.9%. It also gave a viability, T/C (second compound 10 µM, first compound 0.949 µM) of 0.64% and a viability, T/C (second compound 10 µM, first compound 3 µM) of 0.34%.

Molecule `NC(=O)C(=Cn1cnc(-c2cc(C(F)(F)F)cc(C(F)(F)F)c2)n1)c1cncnc1` + CNC(C)C(=O)NC1CN(S(=O)(=O)c2cccc(S(=O)(=O)N3CCC4CCC(C(=O)NC(c5ccccc5)c5ccccc5)N4C(=O)C(NC(=O)C(C)NC)C3)c2)CCC2CCC(C(=O)NC(c3ccccc3)c3ccccc3)N2C1=O has an IC50 (curve of first compound, second compound 0.01 µM) of less than 0.949 nM, an IC50 (curve of first compound, second compound 0.0316 µM) of less than 0.949 nM and an IC50 [1] of less than 0.949 nM. It also gave an IC50 [2] of less than 0.949 nM, an IC50 [3] of less than 0.949 nM and a viability, T/C (second compound 0.01 µM, first compound 0.000949 µM) of 3.47%. It also gave a viability, T/C (second compound 0.01 µM, first compound 0.003 µM) of 3.32%, a viability, T/C (second compound 0.01 µM, first compound 0.00949 µM) of 2.92% and a viability, T/C (second compound 0.01 µM, first compound 0.03 µM) of 3.34%. It also gave a viability, T/C (second compound 0.01 µM, first compound 0.0949 µM) of 3.01%, a viability, T/C (second compound 0.01 µM, first compound 0.3 µM) of 1.3% and a viability, T/C (second compound 0.0316 µM, first compound 0.000949 µM) of 1.67%. For the same molecule, the viability, T/C (second compound 0.0316 µM, first compound 0.003 µM) was 1.38%, the viability, T/C (second compound 0.0316 µM, first compound 0.00949 µM) was 1.57% and the viability, T/C (second compound 0.0316 µM, first compound 0.03 µM) was 1.39%. The viability, T/C (second compound 0.0316 µM, first compound 0.0949 µM) was 1.1%, the viability, T/C (second compound 0.0316 µM, first compound 0.3 µM) was 0.42% and the viability, T/C [26] was 1.05%. It also gave a viability, T/C [27] of 1.72%, a viability, T/C [6] of 1.5% and a viability, T/C [7] of 1.76%. The viability, T/C [8] was 0.66%, the viability, T/C [9] was 0.29% and the viability, T/C [28] was 1.29%. The viability, T/C [29] was 1.22%, the viability, T/C [10] was 1.39% and the viability, T/C [11] was 1.21%. The viability, T/C [12] was 0.77%, the viability, T/C [13] was 0.57% and the viability, T/C [30] was 0.82%. It also gave a viability, T/C [31] of 1.08%, a viability, T/C [14] of 1.07% and a viability, T/C [15] of 0.91%. The viability, T/C [16] was 0.91% and the viability, T/C [17] was 0.37%.

`Cn1ncnc1[C@H]1c2n[nH]c(=O)c3cc(F)cc(c23)N[C@@H]1c1ccc(F)cc1` was tested, and the viability, T/C (compound 0.000316 µM) was 101% and 114% and 108%, the viability, T/C (compound 0.001 µM) was 100% and 110% and 86.8% and the viability, T/C (compound 0.00316 µM) was 92.4% and 90.3% and 77.6%. The viability, T/C (compound 0.01 µM) was 91.5% and 85.7% and 87.9%, the viability, T/C (compound 0.0316 µM) was 89.1% and 103% and 89.5% and the viability, T/C (compound 0.1 µM) was 84.4% and 100% and 74.3%. It also gave an IC50 (curve of compound) greater than 100 nM.

For `NC(=O)C(=Cn1cnc(-c2cc(C(F)(F)F)cc(C(F)(F)F)c2)n1)c1cncnc1` + Cc1c(S(C)(=O)=O)c(-c2cc(F)cc(N3CCN(c4ccc(NS(=O)(=O)c5ccc(NC(CCN6CCC(C(=O)OCCCP(=O)(O)O)CC6)CSc6ccccc6)c(S(=O)(=O)C(F)(F)F)c5)cc4)CC3)c2)c(-c2ccc(Cl)cc2)n1C(C)C, the IC50 [1] was 63.4 nM, the IC50 [2] was 56.5 nM and the IC50 [3] was 50.8 nM. It also gave an IC50 [4] of 38.8 nM, an IC50 [5] of 43.3 nM and a viability, T/C [26] of 100%. For the same molecule, the viability, T/C [27] was 101%, the viability, T/C [6] was 86.3% and the viability, T/C [7] was 62.6%. The viability, T/C [8] was 43.7%, the viability, T/C [9] was 6.26% and the viability, T/C [28] was 111%. It also gave a viability, T/C [29] of 103%, a viability, T/C [10] of 89.8% and a viability, T/C [11] of 64.9%. It also gave a viability, T/C [12] of 37.4%, a viability, T/C [13] of 4.18% and a viability, T/C [30] of 104%. The viability, T/C [31] was 103%, the viability, T/C [14] was 88.5% and the viability, T/C [15] was 67.4%. For the same molecule, the viability, T/C [16] was 30.2%, the viability, T/C [17] was 2.94% and the viability, T/C (second compound 3.16 µM, first compound 0.000949 µM) was 98.1%. It also gave a viability, T/C (second compound 3.16 µM, first compound 0.003 µM) of 93.7%, a viability, T/C [18] of 84.4% and a viability, T/C [19] of 60%. The viability, T/C [20] was 19.2%, the viability, T/C [21] was 2.31% and the viability, T/C (second compound 10 µM, first compound 0.000949 µM) was 105%. The viability, T/C (second compound 10 µM, first compound 0.003 µM) was 103%, the viability, T/C [22] was 97.3% and the viability, T/C [23] was 68%. It also gave a viability, T/C [24] of 12.1% and a viability, T/C [25] of 0.73%.
